Values belong to the compound of their own block, whether it stands above or below them.
Experiments:
[1] = UV absorption properties (λmax, molar extinction coefficient ε, efficiency E 1%, 1 cm); type: physicochemical
[2] = Critical wavelength (λcrit), approximate in-house measurement; type: physicochemical
Text: As the precise test for critical wavelength was unable to be replicated exactly by the inventors due to the need for specialist equipment and a specific calibration of the spectrophotometer, these values are only approximate to a degree. […] This represents a highly useful result and so, compounds based around this benzoyl substitution pattern shown, are especially preferred.

[3] = Table 13B, miscellaneous compounds
[4] = Table 13B, values in order of the λmax values
[5] = Table 13B, values in order of the λmax values, in M-1 cm-1
[6] = Table 7, values in order of the λmax values
[7] = Table 6B, N-tert-butyl compounds
[8] = Table 12, 2-substituted compounds
[9] = Table 9, C3-trifluoroacetylated N-aryl enamines
[10] = Table 3, compounds from isocyanates or isothiocyanates
[11] = values in order of the λmax values

Structure (SMILES): COc1ccc(/C=C/C(=O)C2=CN(CC(C)C)CCC2(C)C)cc1 [drawing 114]
λmax ([1]; Table 7, unsaturated compounds): 364 nm | E (1%, 1 cm) [1, 6]: 493 | ε [1, 6]: 16150 M⁻¹ cm⁻¹ | λcrit ([2]; Table 7): 386 nm

Structure (SMILES): CC(C)CN1C=C(C(=O)CC/C=C/c2ccc(COc3ccc(C(=O)CC(=O)c4ccc(C(C)(C)C)cc4)cc3)cc2)C(C)(C)CC1
λcrit ([2]; Table 1, covalently coupled compounds): 375 nm

Structure (SMILES): CC(C)CN1C=C(C(=O)/C=C/c2ccccc2)C(C)(C)CC1 [drawing 111]
λmax ([1]; Table 7, unsaturated compounds): 360 nm | E (1%, 1 cm) [1, 6]: 533 | ε [1, 6]: 16000 M⁻¹ cm⁻¹ | λcrit ([2]; Table 7): 383 nm

Structure (SMILES): CCC(=O)C1=C(c2ccccc2)N(CC(C)C)CCC1(C)C [drawing 163]
E (1%, 1 cm) ([1]; Table 12): 268 | ε ([1]; Table 12): 8000 M⁻¹ cm⁻¹ | λmax [1, 8]: 338 nm | λcrit ([2]; Table 12): 365 nm

Structure (SMILES): CC(C)CN1C=C(C(=O)c2ccc(N(C)C)cc2)C(C)(C)CC1 [drawing 83]
E (1%, 1 cm) ([1]; Table 6A): 544 | ε ([1]; Table 6A): 17000 M⁻¹ cm⁻¹ | λmax ([1]; Table 6A, N-isobutyl-C3-benzoyl compounds): 336 nm | λcrit ([2]; Table 6A): 362 nm

Structure (SMILES): COc1ccc(C(=O)CC(=O)C2=CN(CC(C)C)CCC2(C)C)cc1 [drawing 53]
λcrit ([2]; Table 2, compounds 11-13): 389 nm

Structure (SMILES): Cc1ccc(N2C=CC(C)(C)C(C(=O)C(F)(F)F)=C2)cc1 [drawing 151]
E (1%, 1 cm) ([1]; Table 10): 505 | λmax ([1]; Table 10, bis and mono enamine compounds): 388 nm | ε ([1]; Table 10, in M-1 cm-1): 14911 | λcrit ([2]; Table 10): 393 nm

Structure (SMILES): CCC(=O)O/C(=C\C1=CC(C)(C)CCN1CC(C)C)CC [drawing 165]
E (1%, 1 cm) ([1]; Table 12): 683 | ε ([1]; Table 12): 20000 M⁻¹ cm⁻¹ | λmax [1, 8]: 323 nm | λcrit ([2]; Table 12): 344 nm

Structure (SMILES): COc1cc(/C=C/C(=O)C2=CN(C(C)(C)C)CCC2(C)C)c(OC)cc1/C=C/C(=O)C1=CN(C(C)(C)C)CCC1(C)C
λmax [1, 3]: 402 nm | E (1%, 1 cm) [1, 4]: 559 | ε [1, 5]: 32220 | λcrit ([2]; Table 13B): 391 nm

Structure (SMILES): COc1ccc(N2C=C(C(=O)Cc3ccccc3)C(C)(C)CC2)cc1 [drawing 133]
E (1%, 1 cm) ([1]; Table 8b): 1008 | λmax ([1]; Table 8b, N-phenyl compounds): 334 nm | ε ([1]; Table 8b, in M-1 cm-1): 33786 | λcrit ([2]; Table 8b): 350 nm

Structure (SMILES): CC1(C)CCN(C(C)(C)C)C=C1C(=O)N(Cc1ccc(CN(C(=O)C2=CN(C(C)(C)C)CCC2(C)C)c2ccccc2)cc1)c1ccccc1
λmax [1, 3]: 314 nm | E (1%, 1 cm) [1, 4]: 391 | ε [1, 5]: 26421 | λcrit ([2]; Table 13B): 365 nm

Structure (SMILES): CN(C)c1ccc(C(=O)C2=CN(C(C)(C)C)CCC2(C)C)cc1 [drawing 95]
E (1%, 1 cm) ([1]; Table 6B): 793 | λmax [1, 7]: 333 nm | ε ([1]; Table 6B, in M-1 cm-1): 24966 | λcrit ([2]; Table 6B): 361 nm

Structure (SMILES): CC(C)(C)CC(C)(C)N1C=C(C(=O)/C=C/c2ccc(Br)cc2)C(C)(C)CC1
λmax [1, 3]: 360 nm | E (1%, 1 cm) [1, 4]: 437 | ε [1, 5]: 18987 | λcrit ([2]; Table 13B): 386 nm

Structure (SMILES): CC1(C)CCN(c2ccc(C(C)(C)C)cc2)C=C1C(=O)C(F)(F)F [drawing 139]
E (1%, 1 cm) ([1]; Table 9): 1260 | λmax [1, 9]: 337 nm | ε ([1]; Table 9, in M-1 cm-1): 42723 | λcrit ([2]; Table 9): 361 nm

Structure (SMILES): C=CC(=O)C1=CN(c2ccc(C)cc2)CCC1(C)C
λmax [1, 3]: 348 nm | E (1%, 1 cm) [1, 4]: 1045 | ε [1, 5]: 26657 | λcrit ([2]; Table 13B): 377 nm

Structure (SMILES): CC1(C)CCN(C(C)(C)C)C=C1C(=S)Nc1ccccc1 [drawing 60]
Ε (1%, 1 cm) ([1]; Table 3): 691 | λmax [1, 10]: 363 nm | ε ([1]; Table 3, in M-1 cm-1): 20881 | λcrit ([2]; Table 3): 387 nm

Structure (SMILES): COc1ccc(N2C=C(C(=O)C(F)(F)F)C(C)(C)CC2)cc1 [drawing 140]
E (1%, 1 cm) ([1]; Table 9): 774 | λmax [1, 9]: 339 nm | ε ([1]; Table 9, in M-1 cm-1): 24235 | λcrit ([2]; Table 9): 365 nm

Structure (SMILES): CC1(C)CCN(C(C)(C)C)C=C1C(=O)c1ccc(C(=O)O)cc1 [drawing 98]
E (1%, 1 cm) ([1]; Table 6B): 549 | λmax [1, 7]: 317 nm | ε ([1]; Table 6B, in M-1 cm-1): 17300 | λcrit ([2]; Table 6B): 353 nm

Structure (SMILES): CC(C)CN1C=C(C(=O)C(C#N)=C(c2ccccc2)c2ccccc2)C(C)(C)CC1 [drawing 118]
λcrit ([2]; Table 7): 357 nm

Structure (SMILES): Cc1ccc(S(=O)(=O)NC(=O)C2=CN(C(C)(C)C)CCC2(C)C)cc1 [drawing 64]
Ε (1%, 1 cm) ([1]; Table 3): 950 | λmax [1, 10]: 304 nm | ε ([1]; Table 3, in M-1 cm-1): 34588 | λcrit ([2]; Table 3): 319 nm

Structure (SMILES): CC(C)CN1C=C(C(=O)/C=C/C=Cc2ccccc2)C(C)(C)CC1 [drawing 115]
λcrit ([2]; Table 7): 387 nm

Structure (SMILES): CC1(C)CCN(C(C)(C)C)C=C1C(=O)/C=C/c1c2ccccc2c(/C=C/C(=O)C2=CN(C(C)(C)C)CCC2(C)C)c2ccccc12
λcrit ([2]; Table 13B): 389 nm

Structure (SMILES): CCCN(CCC)c1ccc(C(=O)C2=CN(C(C)(C)C)CCC2(C)C)cc1
λcrit ([2]; Table 13B): 365 nm

Structure (SMILES): CC1(C)CCN(C(C)(C)C)C=C1C(=O)CC(=O)c1ccccc1 [drawing 76]
λcrit ([2]; Table 5): 385 nm

Structure (SMILES): CCC(=O)O/C(=C\C1=CC(C)(C)CCN1CC(C)C)CC [Compound 60, 1-(1-isobutyl-4,4-dimethyl-1,4,5,6-tetrahydropyridin-2-yl)but-1-en-2-yl propionate]
UV λmax [1]: 323 nm | ε (molar extinction coefficient) [1, 11]: 20000 M⁻¹ cm⁻¹

Structure (SMILES): CC1(C)CCN(C(C)(C)C)C=C1C(=O)COc1ccccc1 [Compound 168, 1-(1-(tert-butyl)-4,4-dimethyl-1,4,5,6-tetrahydropyridin-3-yl)-2-phenoxyethanone]
UV λmax [1]: 313 nm | ε (molar extinction coefficient) [1, 11]: 26154 M⁻¹ cm⁻¹

Other lines, results leading:

λmax [1, 3]: 359 nm | E (1%, 1 cm) [1, 4]: 898 | ε [1, 5]: 54278 | λcrit ([2]; Table 13B): 378 nm
Structure (SMILES): CCCCCCCCCC(=O)C1=CN(c2ccc(N3C=C(C(=O)CCCCCCCCC)C(C)(C)CC3)cc2)CCC1(C)C

E (1%, 1 cm) ([1]; Table 6B): 732 | λmax [1, 7]: 317 nm | ε ([1]; Table 6B, in M-1 cm-1): 33982 | λcrit ([2]; Table 6B): 355 nm
Structure (SMILES): CC1(C)CCN(C(C)(C)C)C=C1C(=O)c1ccc(C(=O)C2=CN(C(C)(C)C)CCC2(C)C)cc1 [drawing 97]

λmax [1, 3]: 386 nm | E (1%, 1 cm) [1, 4]: 705 | ε [1, 5]: 36404 | λcrit ([2]; Table 13B): 390 nm
Structure (SMILES): CC1(C)CCN(C(C)(C)C)C=C1C(=O)/C=C/c1ccc(/C=C/C(=O)C2=CN(C(C)(C)C)CCC2(C)C)cc1

λmax [1, 3]: 358 nm | E (1%, 1 cm) [1, 4]: 934 | ε [1, 5]: 52353 | λcrit ([2]; Table 13B): 378 nm
Structure (SMILES): CCCCCCC(=O)C1=CN(c2ccc(N3C=C(C(=O)CC(C)CCC=C(C)C)C(C)(C)CC3)cc2)CCC1(C)C (centres unmarked)

λmax [1, 3]: 386 nm | E (1%, 1 cm) [1, 4]: 486 | ε [1, 5]: 31937 | λcrit ([2]; Table 13B): 390 nm
Structure (SMILES): CC(C)(C)CC(C)(C)N1C=C(C(=O)/C=C/c2ccc(/C=C/C(=O)C3=CN(C(C)(C)CC(C)(C)C)CCC3(C)C)cc2)C(C)(C)CC1

λmax [1, 3]: 326 nm | E (1%, 1 cm) [1, 4]: 567 | ε [1, 5]: 46937 | λcrit ([2]; Table 13B): 352 nm
Structure (SMILES): CC1(C)CCN(c2ccc(C(C)(C)C)cc2)C=C1C(=O)N(Cc1ccc(CN(C(=O)C2=CN(c3ccc(C(C)(C)C)cc3)CCC2(C)C)c2ccccc2)cc1)c1ccccc1

Ε (1%, 1 cm) ([1]; Table 3): 1456 | λmax [1, 10]: 322 nm | ε ([1]; Table 3, in M-1 cm-1): 71962 | λcrit ([2]; Table 3): 346 nm
Structure (SMILES): CC1(C)CCN(C(C)(C)C)C=C1C(=O)Nc1ccc(NC(=O)C2=CN(C(C)(C)C)CCC2(C)C)cc1 [drawing 65]

λmax [1, 3]: 358 nm | E (1%, 1 cm) [1, 4]: 820 | ε [1, 5]: 47560 | λcrit ([2]; Table 13B): 377 nm
Structure (SMILES): CCCOC(=O)CCC(=O)C1=CN(c2ccc(N3C=C(C(=O)CCC(=O)OCCC)C(C)(C)CC3)cc2)CCC1(C)C

λcrit ([2]; Table 13B): 390 nm
Structure (SMILES): CC1(C)CCN(c2ccccc2)C=C1C(=O)/C=C/c1ccc(/C=C/C(=O)C2=CN(c3ccccc3)CCC2(C)C)cc1

λmax [1, 3]: 358 nm | E (1%, 1 cm) [1, 4]: 550 | ε [1, 5]: 33000 | λcrit ([2]; Table 13B): 378 nm
Structure (SMILES): CC(C)=CCCC(C)CC(=O)C1=CN(c2ccc(N3C=C(C(=O)CC(C)CCC=C(C)C)C(C)(C)CC3)cc2)CCC1(C)C (centres unmarked) [drawing 213]

λcrit ([2]; Table 13B): 365 nm
Structure (SMILES): CC1(C)CCN(C(C)(C)C)C=C1C(=O)c1ccc(N2CCCN(c3ccc(C(=O)C4=CN(C(C)(C)C)CCC4(C)C)cc3)CC2)cc1

UV λmax [1]: 332 nm | ε (molar extinction coefficient) [1, 11]: 30675 M⁻¹ cm⁻¹
Structure (SMILES): COc1ccc(N2C=C(C(=O)C3CCCC3=O)C(C)(C)CC2)cc1 (centres unmarked) [Compound 171, 2-(1-(4-methoxyphenyl)-4,4-dimethyl-1,4,5,6-tetrahydropyridine-3-carbonyl)cyclopentanone]

From patent US10519111B2, “UV absorbing compounds, compositions comprising same and uses thereof” (CORAL SUNSCREEN PTY LTD, priority 2013, dated 2019)
